In patent publication US5990078A, “Means of increasing estrogen receptor levels in neural tissue” (The Trustees of Columbia University in the City of New York, priority 1996, dated 1999):
“Also recorded” adds a separate entry of the source.

What was measured:
estrogen receptor [1] = target: T1, estrogen receptor (Rattus norvegicus, UniProt P06211); test: Scatchard analysis of [3H]-moxestrol binding, P14 hypothalamus; set-up: endogenous in cells
T1 sequence (P06211 1-600): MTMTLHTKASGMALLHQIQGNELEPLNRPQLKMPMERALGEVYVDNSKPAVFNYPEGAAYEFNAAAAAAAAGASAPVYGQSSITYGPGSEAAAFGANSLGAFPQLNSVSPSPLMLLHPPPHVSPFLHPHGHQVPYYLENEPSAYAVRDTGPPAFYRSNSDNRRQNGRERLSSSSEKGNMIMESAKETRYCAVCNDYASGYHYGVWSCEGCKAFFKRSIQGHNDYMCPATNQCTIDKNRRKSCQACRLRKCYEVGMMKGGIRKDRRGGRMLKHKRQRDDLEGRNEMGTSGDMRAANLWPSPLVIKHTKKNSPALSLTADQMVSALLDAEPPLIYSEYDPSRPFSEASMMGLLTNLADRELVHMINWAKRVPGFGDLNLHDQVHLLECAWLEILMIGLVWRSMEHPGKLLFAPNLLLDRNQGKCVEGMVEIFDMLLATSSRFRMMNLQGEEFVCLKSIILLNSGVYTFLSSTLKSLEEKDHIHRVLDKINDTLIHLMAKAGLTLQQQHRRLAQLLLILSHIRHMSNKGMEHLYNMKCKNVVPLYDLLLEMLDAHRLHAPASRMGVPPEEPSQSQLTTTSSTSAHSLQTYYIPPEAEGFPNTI
Procedure: (§1) Nuclear receptor binding sites were identified using previously published protocols (Sohrabji et al., 1994a,b) and were standardized for this experiment using both MCF-7 cells and hypothalamic tissue. Cortical and basal forebrain cultures were maintained for 8 days in vitro. At the end of this period, cultures were incubated for 2 h at 34° C. with […] [^3 H]-moxestol (R2858; specific activity 80 Ci/mmol) in feed (phenol red free RPMI+10% gelded horse serum). The gelded horse serum had undetectable levels of estrogens, androgens, and progesterone (see tissue culture protocol), so that there were no endogenous steroids to compete with the nuclear binding of moxestrol. Control cultures were exposed to [^3 H]-moxestrol in the presence of an excess (2 mM) of unlabeled diethyl stilbestrol (DES), a synthetic estrogen. The radioligand-containing feed was then removed and the cultures washed and harvested for nuclear pellets by sucrose gradient density centrifugation at 4° C. Radioactivity was eluted from nuclear pellets with 95% ethanol (moxestrol is completely soluble in >50% ethanol) and the radioactivity counted in a liquid scintillation counter. […] Specific binding was determined as the difference between total binding and non-specific binding (in the presence of an unlabeled competing ligand) and the data expressed as femtomoles of specifically bound [^3 H] -moxestrol/mg DNA. […]

estrogen receptor [2] = target: T2, estrogen receptor (Homo sapiens, UniProt P03372); test: Scatchard analysis of [3H]-moxestrol binding, MCF7 cells
T2 construct: Scatchard analysis on sectioned hypothalamic tissue and MCF7 cells using this protocol; endogenous in cells; host or cells: MCF-7 cells
T2 sequence (P03372 1-595): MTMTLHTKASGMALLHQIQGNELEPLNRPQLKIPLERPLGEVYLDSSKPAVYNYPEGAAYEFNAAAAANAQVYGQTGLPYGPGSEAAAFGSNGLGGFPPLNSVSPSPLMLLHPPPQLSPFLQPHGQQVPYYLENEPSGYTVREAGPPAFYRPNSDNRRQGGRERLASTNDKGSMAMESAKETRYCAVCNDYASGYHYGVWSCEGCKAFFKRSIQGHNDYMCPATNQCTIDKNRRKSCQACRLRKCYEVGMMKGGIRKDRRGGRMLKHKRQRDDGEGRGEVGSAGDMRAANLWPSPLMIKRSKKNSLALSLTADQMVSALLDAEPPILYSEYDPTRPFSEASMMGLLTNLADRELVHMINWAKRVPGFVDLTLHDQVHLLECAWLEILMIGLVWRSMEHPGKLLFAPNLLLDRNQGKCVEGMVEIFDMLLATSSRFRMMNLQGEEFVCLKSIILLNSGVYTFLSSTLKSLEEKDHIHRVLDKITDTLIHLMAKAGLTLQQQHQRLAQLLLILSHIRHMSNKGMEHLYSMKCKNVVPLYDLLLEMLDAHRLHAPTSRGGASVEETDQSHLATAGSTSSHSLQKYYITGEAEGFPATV
Procedure: as §1

estrogen receptor [3] = target: T1, estrogen receptor; set-up: endogenous in cells; details: NGF-sensitive PC12 cells (Sohrabji et al., 1994a); cited from earlier work
p75^NGFR mRNA = test: Northern blot analysis of p75NGFR mRNA in PC12 cells; format: cell-based, rat; details: PC12 cells, NGF treatment
Procedure: PC12 cells were cultured on collagen-coated coverslips or tissue culture dishes in phenol red-free RPMI 1640 (Gibco BRL) nutrient medium supplemented with 10% (heat-inactivated) gelded (steroid-deficient) horse serum (JRH Biological), according to a modification of standard procedures. In these experiments, fetal calf serum, which contains physiologic levels of estrogen, (32 pg/ml) was not used.
Total RNA, prepared by a modification of the Chomczynski and Sacchi method, was size-fractionated (10-20 μg/lane) on a 1.2% agarose-18% formaldehyde gel and capillary-transferred to nylon membrane (Hybond-N; Amersham). Filters were prehybridized (4-18 h) and hybridized (36-40 h) at 42° C. in 50% Formamide, 3× SSC, 0.1M Tris, 5× Denhardt's and 10% Dextran Sulfate. Probes were labeled with [α-^32 P]-dCTP by the random priming procedure (Random Priming kit, Boehringer Mannheim). trkA mRNA was identified by hybridization with pDM97, a 450 bp trkA-specific probe corresponding to the extracellular and transmembrane domains of the trkA gene [67; gift of L. F. Parada, NCI-FCRDC]. p75^NGFR was probed by hybridization with p5b, a 2 Kb probe corresponding to the extracellular domain of the p75^NGFR gene. Blots were washed first in 0.2×SSC and 0.5% SDS briefly at room temperature and then for 2 h at 60° C., with frequent changes of wash buffer. Filters were then exposed to film (Kodak X-Omat) between intensifying screens and stored at -70° C. for 1-4 days before developing.
Using a standard densitometry package (Jandel Scientific), optical density measurements were obtained from X-ray film. trkA and p75^NGFR transcript densities were normalized to an internal control to account for variation in the amount of RNA loaded.
Total RNA was analyzed by Northern blot analyses, using ^32 P-labeled cDNA probes for trkA and p75^NGFR.

estrogen receptor [4] = target: T1, estrogen receptor; test: Nuclear exchange assay: specific nuclear estrogen binding in PC12 cells; format: cell-based; set-up: endogenous in cells; details: for Nuclear estrogen binding after 4 days of NGF treatment: 4 days NGF
Procedure: In these experiments, fetal calf serum, which contains physiologic levels of estrogen, (32 pg/ml) was not used.
Estrogen binding was estimated by a modification of the nuclear exchange assay. […] Groups receiving estrogen were deprived of the steroid 24 h prior to the assay. […] Tubes were then centrifuged briefly (5 mins, 14000 g) to recover a pellet and washed (3×) in the same buffer, excluding Triton X. Since the estrogen receptor is a nuclear receptor, in some experiments a sucrose gradient protocol was employed to ensure a clean nuclear pellet. […] This mixture was then carefully layered over a buffer containing 1.8 M sucrose and centrifuged for 90 mins, at 15,000 g at 4° C., and the nuclear pellet recovered from the bottom of the tube. […] Specific binding was determined as the difference between total binding and non-specific binding (in the presence of an unlabeled competing ligand). […] Group differences were evaluated using one way analysis of variance with Student-Newman-Keuls test of planned post-hoc comparisons. Differences were considered significant at the 0.05 level.
A modification of the nuclear exchange assay was used to determine the presence of estrogen binding sites in nuclear pellets of PC12 cells.

PC12-E2 cells = test: Morphological study of neurite growth in PC12-E2 cells; format: cell-based
Description: It has been previously reported that wild-type, differentiated PC12 pheochromocytoma cells express very low levels of estrogen receptors. Here it is reported that a PC12 cell variant, PC12-E2 (Wu, Bradshaw, J. Cell Physiol. 164:1995), is estrogen responsive and expresses high estrogen receptor level (≈50% of the levels observed in estrogen receptor over-expressing MCF-7 cells). Moreover, although tyrosine phosphorylation of the estrogen receptor appeared to be expressed constitutively, these cells responded to added estrogen. PC12-E2 responsiveness to estrogen was determined morphologically and by measuring estradiol-induced ERK activation. […] Preliminary co-precipitation experiments show an association between src and estrogen receptor, src with MEK (MAP Kinase/ERK-activating Kinase), and MEK with B-raf, MEK, which phosphorylates the ERKs on tyrosine residues, is known to exist as a complex consisting of at least hsp90 and B-raf.

estrogen receptor mRNA = test: In situ hybridization for estrogen receptor mRNA in PC12 cells; format: cell-based, rat; details: NGF-treated (14 days, >2 weeks)
Description: Estrogen receptor mRNA was identified using a previously described unique 48-base oligonucleotide sequence, identical to a region within the ligand-binding domain of the rat uterine estrogen receptor [51] and with less than 25% homology with the other members of the steroid receptor superfamily of DNA binding proteins. The probes were 3' end-labeled with digoxigenin-deoxyuridine-triphosphate using terminal deoxynucleotidyl transferase (BRL).
In situ hybridization histochemistry for the estrogen receptor was performed according to the procedure described in Miranda and Toran-Allerand [71]. Briefly, paraformaldehyde-fixed cultures were hybridized with digoxigenin-labeled oligonucleotide for 16-18 hours, washed extensively and later incubated with antidigoxigenin antibody conjugated to alkaline phosphatase (Boehringer Mannheim). RNA-oligonucleotide hybrids were visualized with a blue color reaction (nitroblue tetrazolium salt/5-bromo-4-chloro-3-indolyl-phosphate) catalyzed by antibody-conjugated alkaline-phosphatase. Color reaction was terminated for all groups when color appeared fully developed in one condition. Coverslips were dehydrated briefly, cleared in Histoclear (National Diagnostics) and coverslipped in Permount. […]

estrogen receptor [5] = test: Tyrosine phosphorylation of the estrogen receptor, cortical explants; format: cell-based
Procedure: Estrogen and the neurotrophins have important roles in the developing and adult central nervous system (CNS). […] The hypothesis that estrogen/neurotrophin receptor co-expression leads to reciprocal regulation at the level of signal transduction, through cross-coupling of converging estrogen and neurotrophin signaling pathways whose end-points in the nucleus may be the very same genes was tested. Postnatal day 2 cerebral cortex was maintained as organotypic explants in roller tube culture for 7 days.

[6] = read-out: Dissociation constant (Kd)

Maximal binding (Bmas) (estrogen receptor [1]) | Kd (estrogen receptor [1]; [6]) | Maximal binding (Bmas) (estrogen receptor [2]) | Kd (estrogen receptor [2]; [6]) | Increase in specific nuclear estrogen binding vs naive (untreated) cells (estrogen receptor [4]; NGF for 3 weeks (21 days)) | Nuclear estrogen binding after 1 day of NGF exposure (estrogen receptor [4]; time course, 1 day NGF) | Nuclear estrogen binding after 4 days of NGF treatment (estrogen receptor [4]; time course, listed as nerve growth factor) | Tyrosine phosphorylation of the estrogen receptor (estrogen receptor [5]) | Compound | Increase in estrogen binding sites (estrogen receptor [3]) | p75NGFR mRNA vs untreated controls (p75^NGFR mRNA) | Nuclear estrogen binding after 4 days of NGF treatment (estrogen receptor [4]; time course) | Neurite outgrowth (PC12-E2 cells) | Time to induction of neurite outgrowth (PC12-E2 cells) | Hybridization to estrogen receptor probe (estrogen receptor mRNA)
310 fmol/mg DNA | 0.86 nM | 1800-2500 fmol/mg DNA | 0.7 to 0.78 nM | – | – | – | – | C#C[C@]1(O)CC[C@H]2[C@@H]3CCc4cc(O)ccc4[C@H]3[C@@H](OC)C[C@@]21C [[^3 H]-moxestrol, 11β-methoxy-[^3 H]-moxestrol] | – | – | – | – | – | –
– | – | – | – | sixfold | No increase was observed | double | induced tyrosine phosphorylation | NGF: nerve growth factor, member of the neurotrophin family of growth factors | sixfold | increase | noticeable elevation; also recorded: increase in estrogen binding is present as early as 4 days | extensive and rapid | ≤ 24 h | strongly hybridize
